The values that follow come from patent US20180303807A1, “ANDROGEN RECEPTOR LIGANDS” (DUKE UNIVERSITY, priority 2015, published 2018).

Series [1] concerns CV1 cells. Briefly: Toxicity of test compound in the CV1 reporter gene assay (Renilla-Luc). The class given is cell-based. The protocol: (§1) Reporter Gene Assay (IC50 determination, Table 2, B1-B3). CV1 cells were seeded into 96-well cell culture plates and transfected with Lipofectin. For AR transcriptional assays, the DNA mixture consisted of pcDNA-AR, MMTV-Luc (androgen responsive reporter gene), and Renilla-Luc (for assessing transfection efficiency and toxicity). Following overnight incubation, cells were induced with hormone (0.1 nM R1881 (synthetic AR agonist) plus increasing concentrations of test compound) for 24 hrs. Cells were lysed and luciferase activity was quantified using Dual Luciferase Reagent (DLR). IC50 determination was assessed using GraphPad Prism software.
In general terms: In a reporter assay the amount or activity of a reporter protein is the signal.

Series [2] deals with T1, AR (Homo sapiens, UniProt P10275).
T1 construct: expressed in transfected cells; host or cells: CV1 cells
T1 sequence (P10275 1-920): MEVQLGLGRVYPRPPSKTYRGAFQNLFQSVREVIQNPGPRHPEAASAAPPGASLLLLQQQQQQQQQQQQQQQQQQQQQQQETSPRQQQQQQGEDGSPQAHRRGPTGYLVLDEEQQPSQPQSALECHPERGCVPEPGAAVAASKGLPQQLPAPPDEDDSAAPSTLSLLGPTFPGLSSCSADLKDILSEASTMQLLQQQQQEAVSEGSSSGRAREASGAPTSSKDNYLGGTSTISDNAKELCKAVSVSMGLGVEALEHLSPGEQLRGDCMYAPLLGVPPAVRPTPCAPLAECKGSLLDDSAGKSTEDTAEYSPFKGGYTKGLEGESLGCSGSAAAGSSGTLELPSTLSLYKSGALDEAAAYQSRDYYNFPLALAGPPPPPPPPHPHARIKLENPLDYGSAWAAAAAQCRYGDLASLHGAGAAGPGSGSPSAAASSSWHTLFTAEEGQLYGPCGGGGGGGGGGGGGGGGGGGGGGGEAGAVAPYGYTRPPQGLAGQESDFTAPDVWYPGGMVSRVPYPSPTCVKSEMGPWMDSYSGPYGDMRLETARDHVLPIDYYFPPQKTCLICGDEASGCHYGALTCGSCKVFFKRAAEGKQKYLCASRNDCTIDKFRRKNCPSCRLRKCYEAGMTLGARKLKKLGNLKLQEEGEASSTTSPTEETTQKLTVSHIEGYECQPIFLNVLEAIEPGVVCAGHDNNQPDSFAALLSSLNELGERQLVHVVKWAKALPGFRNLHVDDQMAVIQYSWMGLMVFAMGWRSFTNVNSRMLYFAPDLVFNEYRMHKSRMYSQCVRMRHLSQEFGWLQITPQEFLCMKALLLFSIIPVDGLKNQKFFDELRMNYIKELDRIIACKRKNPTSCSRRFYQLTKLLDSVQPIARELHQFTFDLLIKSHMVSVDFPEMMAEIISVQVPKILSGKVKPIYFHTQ
Briefly: Reporter gene assay, AR transcriptional (MMTV-Luc) in CV1 cells. The class given is cell-based. Particulars: pcDNA-AR + MMTV-Luc, 0.1 nM R1881 plus test compound, 24 hrs, read-out: B1 = AR transcriptional IC50 (μM) in CV1 cells. On the procedure: as §1

In general, IC50 refers to the concentration that inhibits the measured activity by half.

Each structure is given as a SMILES string.

With `Cc1n[nH]c2c1C(c1ccc([N+](=O)[O-])cc1)C1=C(N2)C(C)(C)CCC1=O` (centres unmarked) [Compound A23], in series [1], the “B2 = % Toxicity of test compound (20 μM)” value is recorded as 0% and the “B3 = % Toxicity of test compound (60 μM)” value is listed as 0%. In addition, the IC50 in series [2] is greater than 10 µM.

For `O=C1CCCC2=C1C(c1cccc([N+](=O)[O-])c1)c1c(ccc3ccccc13)N2` (centres unmarked) [Compound A21], in series [1], the “B2 = % Toxicity of test compound (20 μM)” value is listed as 0% and the “B3 = % Toxicity of test compound (60 μM)” value came to 28%. Also, the IC50 in series [2] was greater than 10 µM. On to `O=C1CCCC2=C1C(c1ccc3c(c1)OCO3)c1c(ccc3ccccc13)N2` (centres unmarked) [Compound A15], for which, in series [1], the “B2 = % Toxicity of test compound (20 μM)” value is given as 0% and the “B3 = % Toxicity of test compound (60 μM)” value is listed as 0%. Besides, the IC50 in series [2] was greater than 10 µM. Turning to `CC1(C)CC(=O)C2=C(C1)Nc1ccc3ccccc3c1C2c1cc([N+](=O)[O-])c(O)cc1Cl` (centres unmarked) [Compound A16], in series [1], the “B2 = % Toxicity of test compound (20 μM)” value was determined as 0% and the “B3 = % Toxicity of test compound (60 μM)” value amounted to 0%. Besides, the IC50 in series [2] is greater than 10 µM.

For the compound `CC1(C)CC(=O)C2=C(C1)Nc1ccc3ccccc3c1C2c1c[nH]c2ccccc12` (centres unmarked) [Compound A14], in series [1], the “B2 = % Toxicity of test compound (20 μM)” value was 0% and the “B3 = % Toxicity of test compound (60 μM)” value is 0%. In series [2], the IC50 was greater than 10 µM. As to `CC1(C)CC(=O)C2=C(C1)Nc1ccc3ncccc3c1C2c1ccc(Cl)c([N+](=O)[O-])c1` (centres unmarked) [Compound A5], in series [1], the “B2 = % Toxicity of test compound (20 μM)” value turned out to be 24% and the “B3 = % Toxicity of test compound (60 μM)” value is 68%. The half-inhibitory concentration (IC50) in series [2] was 3.3 µM. The corresponding values for `O=C1CCCC2=C1C(c1ccco1)c1c(ccc3ccccc13)N2` (centres unmarked) [Compound A17] are 0%, 36% and greater than 10 µM. `CC(C)C1CC(=O)C2=C(C1)Nc1ccc3ncccc3c1C2c1ccc([N+](=O)[O-])cc1` (centres unmarked) [Compound A45]: in series [2], the IC50 was found to be 0.3 µM. The same measure, in the same setting: the figure for `O=C1CCC2=C1C(c1ccc([N+](=O)[O-])cc1)c1c(ccc3ncccc13)N2` (centres unmarked) [Compound A47] is 9.9 µM. Turning to `CN1CC(=O)C2=C(C1)Nc1ccc3ncccc3c1C2c1ccc(F)c(F)c1` (racemic) [Compound A54, (±)-12-(3,4-difluorophenyl)-9-methyl-8,9,10,12-tetrahydropyrido[4,3-b][4,7]phenanthrolin-11(7H)-one], the half-inhibitory concentration (IC50) in series [2] was greater than 10 µM. Same read-out and setting: as for `Cc1ccc(C2C3=C(CC(C)(C)CC3=O)Nc3cc(N4CCCC4)ccc32)s1` (centres unmarked) [Compound A105], the figure is greater than 10 µM; as for `CC1(C)CC(=O)C2=C(C1)Nc1ccc3ncccc3c1C2c1ccc(Br)nc1` (centres unmarked) [Compound A34], 1.9 µM; as for `CC1CC(=O)C2=C(C1)Nc1ccc3ncccc3c1C2c1ccc([N+](=O)[O-])cc1` (centres unmarked) [Compound A26], 0.43 µM. Regarding `CC1(C)CC(=O)C2=C(C1)Nc1ccc3ncccc3c1C2c1cccs1` (centres unmarked) [Compound A66, 9,9-dimethyl-12-(thiophen-2-yl)-8,9,10,12-tetrahydrobenzo[b][4,7]phenanthrolin-11(7H)-one], the half-inhibitory concentration (IC50) in series [2] came to 4.1 µM.

For `Cc1ccc(C2C3=C(CC(C)(C)CC3=O)Nc3ccc4ncccc4c32)nc1` (centres unmarked) [Compound A35], the IC50 in series [2] was 58 µM. Same read-out and setting: as for `CC1(C)CC(=O)C2=C(C1)Nc1ccc3ncccc3c1C2c1ccc(C(F)(F)F)cc1` (centres unmarked) [Compound A41], the figure is 1.9 µM. The same measure, in the same setting: the figure for `CC1(C)CC(=O)C2=C(C1)Nc1ccc3ncccc3c1C2c1ccc2nonc2c1` (centres unmarked) [Compound A30] is 1.8 µM; for `CC1(C)CC(=O)C2=C(C1)Nc1cc(N3CCCC3)ccc1C2c1ccc(Br)s1` (racemic) [Compound A98, (±)-9-(5-bromothiophen-2-yl)-3,3-dimethyl-6-(pyrrolidin-1l-yl)-3,4,9,10-tetrahydroacridin-1(2H)-one] it is greater than 10 µM; for `CC1(C)CC(=O)C2=C(C1)Nc1ccc3nc(C#N)ccc3c1C2c1ccc(F)c(F)c1` (racemic) [Compound A52, (±)-12-(3,4-difluorophenyl)-9,9-dimethyl-11-oxo-7,8,9,10,11,12-hexahydrobenzo[b][4,7]phenanthroline-3-carbonitrile] it is greater than 10 µM.

On to `CC1(C)CC(=O)C2=C(C1)Nc1ccc3ncccc3c1C2c1ccc(O)cc1` (centres unmarked) [Compound A24], for which, in series [1], the “B2 = % Toxicity of test compound (20 μM)” value came to 0% and the “B3 = % Toxicity of test compound (60 μM)” value stood at 35%. In addition, the IC50 in series [2] was greater than 10 µM. Consider `CC1(C)CC(=O)C2=C(C1)Nc1ccc3ccccc3c1C2c1ccc(-c2nnc(N)s2)cc1` (centres unmarked) [Compound A19], for which, in series [1], the “B2 = % Toxicity of test compound (20 μM)” value amounted to 0% and the “B3 = % Toxicity of test compound (60 μM)” value worked out at 87%. Besides, the half-maximal inhibitory concentration (IC50) in series [2] was greater than 10 µM. Consider `CC1(C)CC2=C(C(c3ccc(F)c(F)c3)c3c(ccc4ncccc34)N2)S(=O)(=O)C1` (racemic) [Compound A53, (±)-12-(3,4-difluorophenyl)-9,9-dimethyl-8,9,10,12-tetrahydro-7H-thiopyrano[2,3-b][4,7]phenanthroline 11,11-dioxide], for which the IC50 in series [2] is greater than 10 µM. Turning to `CC1(C)CC(=O)C2=C(C1)Nc1ccc3nc(C(=O)O)ccc3c1C2c1ccc(F)c(F)c1` (racemic) [Compound A80, (±)-12-(3,4-difluorophenyl)-9,9-dimethyl-11-oxo-7,8,9,10,11,12-hexahydrobenzo[b][4,7]phenanthroline-3-carboxylic acid], the IC50 in series [2] is greater than 10 µM.

In the case of `O=C1CCCC2=C1C(c1ccc(O)cc1)c1c(ccc3ccccc13)N2` (centres unmarked) [Compound A20], in series [1], the “B2 = % Toxicity of test compound (20 μM)” value is reported as 0% and the “B3 = % Toxicity of test compound (60 μM)” value is on record as 0%. Moreover, the IC50 in series [2] was greater than 10 µM. On to `O=[N+]([O-])c1ccc(C2C3=C(CCCC3)Nc3ccc4ccccc4c32)cc1` (centres unmarked) [Compound A25], for which, in series [1], the “B2 = % Toxicity of test compound (20 μM)” value was 23% and the “B3 = % Toxicity of test compound (60 μM)” value came to 42%. For the same compound, in series [2], the IC50 is greater than 10 µM. Regarding `CC1(C)CC(=O)C2=C(C1)Oc1ccc3ccccc3c1C2c1ccc(F)c(F)c1` (racemic) [Compound A89, (±)-12-(3,4-difluorophenyl)-9,9-dimethyl-9,10-dihydro-8H-benzo[a]xanthen-11(12H)-one], in series [2], the IC50 was determined as 0.4 µM.

In the case of `CC1(C)CC(=O)C2=C(C1)Nc1ccc3ncccc3c1C2c1ccc(F)c(F)c1` (centres unmarked) [Compound A32], the half-maximal inhibitory concentration (IC50) in series [2] worked out at 0.4 µM.

As for `CC1(C)CC(=O)C2=C(C1)Nc1ccc3ncccc3c1C2c1ccc(Br)cn1` (centres unmarked) [Compound A33], the IC50 in series [2] came to 3.4 µM.

With `CC1(C)CC(=O)C2=C(C1)Nc1ccc3nccnc3c1C2c1ccc(Cl)s1` (racemic) [Compound A99, (±)-12-(5-chlorothiophen-2-yl)-9,9-dimethyl-8,9,10,12-tetrahydropyrazino[2,3-a]acridin-11(7H)-one], the IC50 in series [2] stood at 0.6 µM. On the same count and under the same terms, as for `C[n+]1cccc2c3c(ccc21)NC1=C(C(=O)CC(C)(C)C1)C3c1ccc(F)c(F)c1` (racemic) [Compound A87, (±)-12-(3,4-difluorophenyl)-4,9,9-trimethyl-11-oxo-7,8,9,10,11,12-hexahydrobenzo[b][4,7]phenanthrolin-4-ium iodide], the figure is 1.3 µM; as for `CC1(C)CC(=O)C2=C(C1)Nc1ccc3ncccc3c1C2c1cnccn1` (centres unmarked) [Compound A65], greater than 10 µM. As to `CC1(C)CC(=O)C2=C(C1)Nc1ccc3ccccc3c1C2c1cccnc1` (centres unmarked) [Compound A13], in series [1], the “B2 = % Toxicity of test compound (20 μM)” value is recorded as 0% and the “B3 = % Toxicity of test compound (60 μM)” value turned out to be 78%. The IC50 in series [2] was determined as 12 µM.
